Common to all, as to format: in vivo, marmoset
The subject of series [1] is Parkinsonian marmosets. In words: motor activity recorded by actiwatch-mini during levodopa-induced dyskinesia. The settings on record: for motor activity / hyperactivity during peak-dose dyskinesia (actiwatch-mini): test drug 10 mg/kg with levodopa 20 mg/kg. Here is the method: (§1) For induction of dyskinesias, Levodopa (Sigma Aldrich) and carbidopa (Sigma Aldrich) at 1:1 were administered orally once daily for 5 days of a week. The drugs were mixed in either Ensure® pudding, cottage cheese, or marshmallows. […] Once the animals were acclimated to the drugs, the dose was increased to 20 mg/kg B.wt and continued for next 6 weeks.
(§2) The diurnal and nocturnal behavior of the marmosets was monitored using the actiwatch mini (Camntech, UK) as previously described. The device is an accelerometer that measures the intensity of the test subject's omnidirectional movements in units or counts that are directly proportional to the animal's activity. The device (2 cm in diameter) was placed on a collar around the neck of the marmoset. The animals were acclimatized to the collar in short sessions of 15 min followed by gradual increments of 30 min, 1 hr, 3 hrs, 6 hrs and 12 hrs. Once acclimatized, the actiwatch mini was attached to the collar and the activity-rest data was recorded for a period of 24 hours on 3 separate days of each treatment. The actiwatches were placed on animals at 8:30 AM and the devices were preset to start recording activity data from 9:00 AM. At 11:30 AM either the vehicle or the drugs were orally administered to the animals. The following day, the actiwatch was removed after 9:00 AM and the data was transferred to a computer through an actiwatch reader using the actiwatch activity and sleep analysis-7 software (Camntech, UK). For sleep analysis, the period of sustained quiescence (marmosets sleep cycle) starting at 7:00 PM in the evening to early morning 6:30 AM (approximately 11½ hrs) was analyzed using the sleep analysis-7 software to quantify the sleep quality and wakeful periods. The duration of sleep time was corrected for individual variations in the animal's behavior to fall asleep at different time of the evening, thereby keeping the period of sleep time analyzed same for all the animals. The analyzed data was then exported to Excel® and plotted using the Graph pad prism statistical software. To determine the change in activity after the administration of drugs, actiwatch data in 10-minute bins were exported using the actiwatch activity and sleep analysis-7 software and plotted in Graph Pad Prism.

In series [2] the test system is Parkinsonian marmosets. In words: Parkinson's Disease Rating Scale (PDRS) in dyskinetic Parkinsonian marmosets. Here is the method:
All the animals (n=3) have been previously treated with MPTP as described in detail. Briefly, MPTP (Sigma Aldrich) (dissolved in physiological saline) at a concentration of 2 mg/ml was subcutaneously injected (2 mg/kg B.wt) for 5 consecutive days. After a wash out period of 72 hours from last MPTP injection, the marmosets were returned to their home cages and monitored twice daily for rest of the study period.
as §1
The severity of symptoms in the marmosets was categorized using a validated Parkinsonian rating scale for NHP. The PDRS correlates highly with striatal dopamine concentrations detected by postmortem immunohistopathology and it is modeled on the Unified Parkinson's Disease Rating Scale (UPDRS) and the Hoehn & Yahr scale used clinically to categorize PD patients. The PDRS was performed in daylight by video recording animals for 30 minutes. The evaluation was carried out biweekly before and after MPTP injections. The videos were scored by a blinded operator using PDRS, with a maximal disability score of 57 in the following manner: 0=normal, 1=mild, 2=moderate, 3=severe; rest tremor, action tremor, tremor of the head, tremor right arm, tremor left arm, freezing, locomotion, fine motor skills right hand, fine motor skills left hand, bradykinesia right arm, bradykinesia left arm, posture, hypokinesia, balance, posture, startle response, gross motor skills right hand and gross motor skills left hand, apathy (defined as a state of indifference), vocalization, drooling or frothing, tongue/face/lips. Independently of the PDRS, rigidity was assessed by evaluating the resistance to passive joint movements and the range of motion during reaching for food. […]

Series [3] has as its system Parkinsonian marmosets. Nature of the series: PD-like symptoms and object retrieval task with barrier detour. As to conditions: compared to control or SWR-3-73. Here is the method:
The PD-like symptoms evaluated included tremors, bradykinesia, and posture and general activity measured by an accelerometer device, the Actiwatch mini. In addition, motor and cognitive functions were measured using the object retrieval task with barrier detour.
The object retrieval task with a barrier detour is a reward based behavioral testing system that was previously described to evaluate motor and cognitive functions of NHP. Briefly, the task requires the test subject to retrieve a reward (marshmallow) fastened to a tray from the open side (bypassing the barrier) of a transparent box. […] All parameters measured were previously described in detail. […] The entire process was recorded using a video camera and the recordings were then analyzed and scored by a blinded experimenter. During each trial, the following responses were scored (1) ability of the animal to reach the front, left, or right side of the box, scored under the term “reach act”; (2) hand of choice for the reach, either left or right, scored under the term “hand used”; (3) the outcome of the reach, either success or failure, scored under result section.
Using the above parameters, additional variables were analyzed: 1) Motor problem: Reaching into the open side of the box but without retrieving the reward. […]

The subject of series [4] is Parkinsonian marmosets with levodopa-induced dyskinesia. In words: levodopa-induced dyskinesia in MPTP Parkinsonian marmosets, dyskinesia rating scale. As to conditions: for expression of levodopa-induced dyskinesia: oral, with levodopa 20 mg/kg, test drug 10 mg/kg where stated. As for the experimental part: Briefly, MPTP (Sigma Aldrich) (dissolved in physiological saline) at a concentration of 2 mg/ml was subcutaneously injected (2 mg/kg B.wt) for 5 consecutive days. After a wash out period of 72 hours from last MPTP injection, the marmosets were returned to their home cages and monitored twice daily for rest of the study period.
as §1
The severity of dyskinesia in the marmosets was categorized using a validated dyskinesia rating scale for NHPs. Dyskinesia was analyzed from 5-minute videos of the monkeys recorded at every 30 minutes on Tuesday, Wednesday and Thursday of each week. The videos were recorded between 9:30 AM-4:30 PM. Each day the vehicle or drugs were administered at 11:30 AM. The severity of dyskinesias was scored for different segments of the animal's body on a scale from 0 to 3, with 0=absent, 1=mild, 2=moderate, 3=severe. The body segments scored were: 1. Right upper limb dyskinesias (0-3); 2. Left upper limb dyskinesias (0-3); 3. Right lower limb dyskinesias (0-3); 4. left lower limb dyskinesias (0-3); 5. Trunk dyskinesias (0-3); 6, Head/facial dyskinesias (0-3). The severity of the rating was based on the frequency and amplitude of the abnormal movements. The total score is deducted from the six sub-scores to yield a dyskinesia score of 0 to 3: with 0=absent, 1=mild, manifesting by transient abnormal involuntary movements with choreic form, flicking of arms and limbs, increased running and hopping in the cages. […] 3=severe, characterized by a sustained dyskinesia manifesting with chorea and athetosis with sinuous writhing movements of the limbs, and dystonia with sustained extension of hind limbs and knees. The animals are unable to reach and grasp for treats (Video 1).

Series [5] relates to Parkinsonian marmosets. Nature of the series: nocturnal activity and sleep analysis by actiwatch-mini. As to conditions: with levodopa 20 mg/kg. As for the experimental part:
as §1, §2

[6] abbreviates: PD13R 0.1 to 10 mg/kg, SWR-3-73 and amantadine 10 mg/kg.
Where [7] appears, read: levodopa 20 mg/kg acute challenge.
Setting [8] is: first week of high dose levodopa/carbidopa 20 mg/kg.
[9] abbreviates: levodopa 20 mg/kg combined with vehicle.

Molecules are shown by their SMILES. Entries after “also recorded” stand apart in the source; their conditions may differ. Some results are limits rather than exact numbers.

Consider `N#Cc1cccc(N2CCN(CCCCNC(=O)c3ccc(-c4ccsc4)cc3)CC2)c1` [PD13R], for which the “hyperactivity during the peak-dose period (actograms)” value in the series with Parkinsonian marmosets [1] (PD13R 0.1 to 10 mg/kg with levodopa 20 mg/kg) is “dose-dependent and significant reduction in the hyperactivity”. Further, in the series on Parkinsonian marmosets [1], the “motor activity / hyperactivity during peak-dose dyskinesia (actiwatch-mini)” value is “motor activity remained within the therapeutic ON-period zone without dyskinesia; also recorded: maintained the motor activity within the ON-period without dyskinesia; also recorded: kept the motor activity within the ON-period; also recorded: inhibited the increased hyperactivity”. Moreover, the “Parkinson's Disease Rating Scale (PDRS)” value with Parkinsonian marmosets [2] (PD13R 10 mg/kg with levodopa in dyskinetic marmosets) is given as “significantly improved the PDRS”. In addition, in the series with Parkinsonian marmosets [3], the “PD-like symptoms and movement coordination” value is “clear improvement in all PD-like symptoms and movement coordination”. Also, the “reduction of the expression of dyskinesia in the peak-dose period” value in series [4] (10 mg/kg with levodopa 20 mg/kg) is listed as “approximately 85%”. In series [4] (PD13R 0.1 mg/kg with levodopa 20 mg/kg), the anti-dyskinetic effects result was “no anti-dyskinetic effects were observed”. The “time to reach peak-dose dyskinesia” value in series [4] (PD13R 5 mg/kg with levodopa 20 mg/kg) turned out to be 1 h. Besides, in series [4] (dose range with levodopa 20 mg/kg), the “dose with optimal anti-dyskinetic outcome” value was determined as 10 mg/kg. The “expression of levodopa-induced dyskinesia” value in series [4] is “inhibited the expression of levodopa-induced dyskinesia; also recorded: significantly suppresses the expression of levodopa-induced dyskinesia; also recorded: eliminates the expression of levodopa-induced dyskinesia; also recorded: eliminated the levodopa-induced dyskinesia; also recorded: significantly inhibited the expression of dyskinesias”.
For the compound `NC12CC3CC(CC(C3)C1)C2` [amantadine], the “motor activity / hyperactivity during peak-dose dyskinesia (actiwatch-mini)” value with Parkinsonian marmosets [1] is given as “inhibited the increased hyperactivity”. For the same compound, the “motor activity / hyperactivity during peak-dose dyskinesia (actiwatch-mini)” value in the series on Parkinsonian marmosets [1] (listed as Amantadine) was “maintained the motor activity within the ON-period without dyskinesia”. Besides, in the series with Parkinsonian marmosets [5], the “actual awake time during the assumed sleep period” value is “actual awake time was significantly increased”; the “effect on sleep (overall)” value is “experienced abnormal irregular sleep and sleep disturbances”. Further, in the series with Parkinsonian marmosets [5] (setting [6]), the nocturnal activity entry is “clear abnormal increase in nocturnal activity; also recorded: significant increase in nocturnal activity” and the sleep efficiency result is on record as “significantly dropped; also recorded: decrease in sleep efficiency; also recorded: sleep efficiency significantly decreased”. Moreover, the “expression of levodopa-induced dyskinesia” value in series [4] was “inhibited the expression of dyskinesia; also recorded: significantly inhibited the expression of dyskinesias”.
Consider `N[C@@H](Cc1ccc(O)c(O)c1)C(=O)O` [levodopa, L-3,4-dihydroxy-phenylalanine], for which, in the series with Parkinsonian marmosets [1] (setting [7]), the “time to cross the dyskinesia threshold after injection (motor activity)” value is no more than 30 min and the “time to return to the ON-period without dyskinesia” value is reported as “approximately 145 minutes”. Besides, the “Parkinsonian symptoms (PDRS)” value with Parkinsonian marmosets [2] (high doses of levodopa) is listed as “worsened the Parkinsonian symptoms”. Also, the “PDRS” value in the series with Parkinsonian marmosets [2] (physiological doses of levodopa) is given as “improved the PDRS”. The “duration of dyskinesia after dosing” value in series [4] (6th week of high dose levodopa 20 mg/kg) is reported as “up to 4 hours”. In series [4] (setting [8]), the “duration of abnormal involuntary movements” value is “up to 180 minutes” and the “time after dosing at which abnormal involuntary movements became visible” value was “approximately 30 minutes”. Further, in series [4] (setting [9]), the “duration of the peak-dose period of dyskinesias” value was determined as 2 h and the “time to reach the peak-dose period of dyskinesias after dosing” value was 30 min. The “highest dyskinesia disability score” value in series [4] (levodopa 20 mg/kg combined with vehicle, scale 0 to 3) is listed as 3.

The values are drawn from patent US20220409602A1, “DOPAMINE D3 RECEPTOR LIGANDS FOR TREATMENT OF DYSKINESIA” (TEXAS BIOMEDICAL RESEARCH INSTITUTE, priority 2021, published 2022).
